Measurements as given in publication PMC11267380, “USP25 Elevates SHLD2‐Mediated DNA Double‐Strand Break Repair and Regulates Chemoresponse in Cancer” (Advanced Science, 2024).

Tested on: USP25 and MDC1 BRCT-domain / FHA-domain
Test: GST pull-down of USP25 with MDC1 deletions after 5-Fu
Type: cell-based, human
Conditions: 5-Fu (20 uM), HEK293T lysates
Method: Figure 4 Regulation of the DDR signaling by USP25. a) HEK293T cells were left untreated or treated with IR (10 Gy) or 5‐Fu (20 uM). USP25 was immunoprecipitated and immunoblotted with phospho‐SQ/TQ (p‐SQ/TQ). b) HEK293T cells were pretreated with Ku55933 (25 µM) for 2 h followed by treatment with IR(10 Gy). After 1 h, USP25 was immunoprecipitated, left untreated, or treated with phosphatase and immunoblotted with p‐SQ/TQ. c) HEK293T cells transfected with USP25^WT and indicated constructs were left treated with IR(10 Gy). USP25 was immunoprecipitated and immunoblotted with p‐SQ/TQ. d) USP25 knockdowm U2OS cells rescued with USP25WT or USP25T523A were treated with IR (2 Gy), and co‐localization USP25 with γH2AX was detected by immunofluorescence. n>80 in each group. e) HEK293T cells were left untreated or treated with 5‐Fu (20 uM). […] The interaction USP25 and MDC1 deletions was detected. g) HEK293T cells transfected with USP25^WT or USP25^T523A were treated with IR, and cell lysates were incubated with GST or GST‐MDC1‐BRCT in vitro. The interaction USP25 and MDC1‐BRCT was detected. h) Non‐phosphorylated or phosphorylated Thr523 peptide was conjugated to beads and incubated with purified GST‐MDC1‐BRCT domain in buffer. […]

O=c1[nH]cc(F)c(=O)[nH]1 [5‐Fu, 5‐fluorouracil]
interaction of MDC1 domains with USP25 after treatment: MDC1 BRCT‐domain but not FHA‐domain interacted with USP25
